Values quoted from earlier work in patent US20090304721A1, “TOXIN […] RECEPTOR ANTIBODIES” (priority 2005, published 2009).

Settings: compared with vincristine and vinblastine; cited from earlier work

COc1cc2cc(c1Cl)N(C)C(=O)C[C@H](OC(=O)[C@H](C)N(C)C(C)=O)[C@]1(C)O[C@H]1[C@H](C)[C@@H]1C[C@@](O)(NC(=O)O1)[C@H](OC)/C=C/C=C(\C)C2 [Maytansine]
cytotoxicity in vitro relative to vinca alkaloids: 200 to 1,000 fold
